Key:
bedstraw = assay: Test B pre/postemergence bedstraw; type: in vivo, Galium aparine; details: Preemergence
How it was run: (§1)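 Response is a visual 0-to-10 score relative to untreated plants, where 0 means no effect and 10 means complete control, taken twelve to sixteen days after application. Treatments went onto soil at planting and onto foliage of 1- to 4-leaf plants, using a surfactant-containing non-phytotoxic solvent.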

blackgrass = assay: Test B pre/postemergence blackgrass; type: in vivo, Alopecurus myosuroides
How it was run: as §1

surinam grass = assay: Test B pre/postemergence surinam grass; type: in vivo, Brachiaria decumbens
How it was run: as §1

cocklebur = assay: Test B pre/postemergence cocklebur; type: in vivo, Xanthium strumarium
How it was run: as §1

corn = assay: Test B pre/postemergence corn; type: in vivo, Zea mays
How it was run: as §1

crabgrass = assay: Test B pre/postemergence crabgrass; type: in vivo, Digitaria sanguinalis
How it was run: as §1

giant foxtail = assay: Test B pre/postemergence giant foxtail; type: in vivo, Setaria faberii
How it was run: as §1

morningglory = assay: Test B pre/postemergence morningglory; type: in vivo, Ipomoea hederacea
How it was run: as §1

pigweed = assay: Test B pre/postemergence pigweed; type: in vivo, Amaranthus retroflexus
How it was run: as §1

rape = assay: Test B pre/postemergence rape; type: in vivo, Brassica napus
How it was run: as §1

soybean = assay: Test B pre/postemergence soybean; type: in vivo, Glycine max
How it was run: as §1

sugar beet = assay: Test B pre/postemergence sugar beet; type: in vivo, Beta vulgaris
How it was run: as §1

velvetleaf = assay: Test B pre/postemergence velvetleaf; type: in vivo, Abutilon theophrasti
How it was run: as §1

wheat = assay: Test B pre/postemergence wheat; type: in vivo, Triticum aestivum
How it was run: as §1

wild oat = assay: Test B pre/postemergence wild oat; type: in vivo, Avena fatua
How it was run: as §1

purple nutsedge = assay: Test B pre/postemergence purple nutsedge; type: in vivo, Cyperus rotundus
How it was run: as §1

rice = assay: Test B flood test rice; type: in vivo, Oryza sativa
How it was run: (§2)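 Read-out is a visual response score from 0 (no effect) to 10 (complete control), assigned by comparison with untreated controls. Treatment was applied at the 2-leaf stage, and plants stayed in the greenhouse for twelve to sixteen days before scoring.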

smallflower flatsedge = assay: Test B flood test smallflower flatsedge; type: in vivo, Cyperus difformis
How it was run: as §2

duck salad = assay: Test B flood test duck salad; type: in vivo, Heteranthera limosa
How it was run: as §2

bamyardgrass = assay: Test B flood test barnyardgrass; type: in vivo, Echinochloa crus-galli
How it was run: as §2

[1] = Postemergence, Rate 62 g/ha, scale of 0 to 10, 0 is no effect, 10 is complete control
[2] = Postemergence, Rate 125 g/ha, scale of 0 to 10 where 0 is no effect and 10 is complete control
[3] = Postemergence, Rate 250 g/ha, scale of 0 to 10, 0 is no effect, 10 is complete control
[4] = Postemergence, Rate 500 g/ha, scale of 0 to 10 where 0 is no effect and 10 is complete control
[5] = Preemergence, Rate 62 g/ha, scale 0 to 10 (0 no effect, 10 complete control)
[6] = Preemergence, Rate 125 g/ha, scale of 0 to 10 where 0 is no effect and 10 is complete control
[7] = Preemergence, Rate 500 g/ha, scale of 0 to 10 where 0 is no effect and 10 is complete control
[8] = Rate 62 g/ha, flood test species, Pre-emergence, visual evaluation after twelve to sixteen days
[9] = Rate 125 g/ha, under heading Pre-emergence, flood test species, visual evaluation after twelve to sixteen days
[10] = Rate 250 g/ha, Pre-emergence (flood test species), scale 0 to 10, 0 is no effect, 10 is complete control
[11] = Rate 500 g/ha, Pre-emergence section of Table B, 0 to 10 scale (0 no effect, 10 complete control)

COC(C)n1c(=O)on(C(=O)N(c2ccc(Cl)cc2)C(C)C)c1=O (stereo not shown) [Compound 592]
1: Morningglory plant response rating (morningglory; [1]) | Plant response rating, Morningglory (morningglory; [2]) | Plant response rating, Soybean (soybean; [2]) | Soybean plant response rating (soybean; [3]) | Plant response rating, Soybean (soybean; [4])
0: Bedstraw plant response rating (bedstraw; Rate 62 g/ha, scale 0 to 10 (0 no effect, 10 complete control)) | Bedstraw plant response rating (bedstraw; Rate 125 g/ha, scale of 0 to 10 where 0 is no effect and 10 is complete control) | Blackgrass plant response rating (blackgrass; [1]) | Plant response rating, Blackgrass (blackgrass; [2]) | Blackgrass plant response rating (blackgrass; [3]) | Plant response rating, Blackgrass (blackgrass; [4]) | Blackgrass plant response rating (blackgrass; [5]) | Blackgrass plant response rating (blackgrass; [6]) | Blackgrass plant response rating (0 to 10 scale) (blackgrass; Preemergence, Rate 250 g/ha) | Blackgrass plant response rating (blackgrass; [7]) | B. signalgrass plant response rating (surinam grass; [1]) | Plant response rating, B. signalgrass (surinam grass; [2]) | B. signalgrass plant response rating (surinam grass; [3]) | Plant response rating, B. signalgrass (surinam grass; [4]) | B. signalgrass plant response rating (surinam grass; [5]) | B. signalgrass plant response rating (surinam grass; [6]) | B. signalgrass plant response rating (0 to 10 scale, 0 is no effect, 10 is complete control) (surinam grass; Preemergence, Rate 250 g/ha) | B. signalgrass plant response rating (surinam grass; [7]) | Cocklebur plant response rating (cocklebur; [1]) | Plant response rating, Cocklebur (cocklebur; [2]) | Cocklebur plant response rating (cocklebur; [3]) | Plant response rating, Cocklebur (cocklebur; [4]) | Cocklebur plant response rating (cocklebur; [5]) | Cocklebur plant response rating (cocklebur; [6]) | Cocklebur plant response rating (0 to 10 scale) (cocklebur; Preemergence, Rate 250 g/ha) | Plant response rating, Cocklebur (cocklebur; [7]) | Corn plant response rating (corn; [1]) | Plant response rating, Corn (corn; [2]) | Corn plant response rating (corn; [3]) | Plant response rating, Corn (corn; [4]) | Corn plant response rating (corn; [5]) | Corn plant response rating (corn; [6]) | Corn plant response rating (0 to 10 scale) (corn; Preemergence, Rate 250 g/ha) | Plant response rating, Corn (corn; [7]) | Crabgrass plant response rating (crabgrass; [1]) | Plant response rating, Crabgrass (crabgrass; [2]) | Crabgrass plant response rating (crabgrass; [3]) | Crabgrass plant response rating (crabgrass; [5]) | Crabgrass plant response rating (crabgrass; [6]) | Giant foxtail plant response rating (giant foxtail; [1]) | Plant response rating, Giant foxtail (giant foxtail; [2]) | Giant foxtail plant response rating (giant foxtail; [3]) | Plant response rating, Giant foxtail (giant foxtail; [4]) | Giant foxtail plant response rating (giant foxtail; [5]) | Giant foxtail plant response rating (giant foxtail; [6]) | Plant response rating, Giant foxtail (giant foxtail; [7]) | Morningglory plant response rating (morningglory; [5]) | Morningglory plant response rating (morningglory; [6]) | Plant response rating, Morningglory (morningglory; [7]) | Plant response rating, Redroot pigweed (pigweed; [2]) | Redroot pigweed plant response rating (pigweed; [3]) | Plant response rating, Redroot pigweed (pigweed; [4]) | Redroot pigweed plant response rating (pigweed; [5]) | Redroot pigweed plant response rating (pigweed; [6]) | Plant response rating, Redroot pigweed (pigweed; [7]) | Rape plant response rating (rape; [1]) | Plant response rating, Rape (rape; [2]) | Rape plant response rating (rape; [3]) | Plant response rating, Rape (rape; [4]) | Rape plant response rating (rape; [5]) | Rape plant response rating (rape; [6]) | Plant response rating, Rape (rape; [7]) | Soybean plant response rating (soybean; [5]) | Soybean plant response rating (soybean; [6]) | Plant response rating, Soybean (soybean; [7]) | Plant response rating, Sugarbeets (sugar beet; [2]) | Sugarbeets plant response rating (sugar beet; [3]) | Plant response rating, Sugarbeets (sugar beet; [4]) | Sugarbeets plant response rating (sugar beet; [5]) | Sugarbeets plant response rating (sugar beet; [6]) | Plant response rating, Sugarbeets (sugar beet; [7]) | Plant response rating, Velvetleaf (velvetleaf; [2]) | Velvetleaf plant response rating (velvetleaf; [3]) | Plant response rating, Velvetleaf (velvetleaf; [4]) | Velvetleaf plant response rating (velvetleaf; [5]) | Velvetleaf plant response rating (velvetleaf; [6]) | Plant response rating, Velvetleaf (velvetleaf; [7]) | Plant response rating, Wheat (wheat; [2]) | Wheat plant response rating (wheat; [3]) | Plant response rating, Wheat (wheat; [4]) | Wheat plant response rating (wheat; [5]) | Wheat plant response rating (wheat; [6]) | Plant response rating, Wheat (wheat; [7]) | Plant response rating, Wild oats (wild oat; [2]) | Wild oats plant response rating (wild oat; [3]) | Plant response rating, Wild oats (wild oat; [4]) | Wild oats plant response rating (wild oat; [5]) | Wild oats plant response rating (wild oat; [6]) | Plant response rating, Wild oats (wild oat; [7]) | Nutsedge plant response rating (purple nutsedge; [1]) | Plant response rating, Nutsedge (purple nutsedge; [2]) | Nutsedge plant response rating (purple nutsedge; [3]) | Plant response rating, Nutsedge (purple nutsedge; [4]) | Nutsedge plant response rating (purple nutsedge; [5]) | Nutsedge plant response rating (purple nutsedge; [6]) | Plant response rating, Nutsedge (purple nutsedge; [7]) | Plant response rating, Rice (0 to 10 scale, 0 is no effect, 10 is complete control) (rice; [8]) | Rice plant response rating (0 to 10 scale, 0 is no effect, 10 is complete control) (rice; [9]) | Rice plant response rating (rice; [10]) | Rice plant response rating (rice; [11]) | Plant response rating, S. Flatsedge (0 to 10 scale, 0 is no effect, 10 is complete control) (smallflower flatsedge; [8]) | S. Flatsedge plant response rating (0 to 10 scale, 0 is no effect, 10 is complete control) (smallflower flatsedge; [9]) | S. Flatsedge plant response rating (smallflower flatsedge; [10]) | S. Flatsedge plant response rating (smallflower flatsedge; [11]) | Plant response rating, Ducksalad (0 to 10 scale, 0 is no effect, 10 is complete control) (duck salad; [8]) | Ducksalad plant response rating (0 to 10 scale, 0 is no effect, 10 is complete control) (duck salad; [9]) | Ducksalad plant response rating (duck salad; [10]) | Ducksalad plant response rating (duck salad; [11]) | Plant response rating, Barnyardgrass (0 to 10 scale, 0 is no effect, 10 is complete control) (bamyardgrass; [8]) | Barnyardgrass plant response rating (0 to 10 scale, 0 is no effect, 10 is complete control) (bamyardgrass; [9]) | Barnyardgrass plant response rating (bamyardgrass; [10]) | Barnyardgrass plant response rating (bamyardgrass; [11])
2: Plant response rating, Crabgrass (crabgrass; [4]) | Plant response rating, Crabgrass (crabgrass; [7]) | Morningglory plant response rating (morningglory; [3]) | Plant response rating, Morningglory (morningglory; [4])

From patent publication US6737383B1, “Herbicidal oxadiazolidines” (priority 1999, dated 2004)
